Numbers after ± are expanded uncertainties.
What was measured:
[1] = 101.33 kPa, Liquid; for mass density: Pycnometric method
[2] = xn = mol fraction of the nth substance listed; details: 308.15 K, 101 kPa, Liquid, Frequency=2 MHz

## O=C1CCCN1 [2-pyrrolidinone]
[1]; 298.15 K
  mass density: 1107.26 ± 1.6 kg/m3
[1]; 308.15 K
  speed of sound: 1603 ± 7 m/s

## c1ccccc1 [benzene]
[1]; 298.15 K
  speed of sound: 1298 ± 6 m/s
  mass density: 873.62 ± 1.1 kg/m3

## c1ccccc1 [benzene] + CCCO
[2]; x1 = 0.0852
  speed of sound: 1192 ± 6 m/s
[2]; x1 = 0.1733
  speed of sound: 1196 ± 6 m/s
[2]; x1 = 0.2644
  speed of sound: 1200 ± 6 m/s
[2]; x1 = 0.3059
  speed of sound: 1201 ± 6 m/s
[2]; x1 = 0.3586
  speed of sound: 1203 ± 6 m/s
[2]; x1 = 0.3995
  speed of sound: 1204 ± 6 m/s
[2]; x1 = 0.4561
  speed of sound: 1206 ± 6 m/s
[2]; x1 = 0.5274
  speed of sound: 1208 ± 6 m/s
[2]; x1 = 0.582
  speed of sound: 1210 ± 6 m/s
[2]; x1 = 0.6618
  speed of sound: 1213 ± 6 m/s
[2]; x1 = 0.7267
  speed of sound: 1216 ± 6 m/s
[2]; x1 = 0.7703
  speed of sound: 1219 ± 6 m/s
[2]; x1 = 0.883
  speed of sound: 1233 ± 6 m/s
[2]; x1 = 0.9335
  speed of sound: 1242 ± 6 m/s

## CCCO [propan-1-ol]
[1]; 298.15 K
  speed of sound: 1188 ± 6 m/s
  mass density: 799.28 ± 0.9 kg/m3

## Cc1ccccc1 [toluene]
[1]; 298.15 K
  speed of sound: 1305 ± 6 m/s
  mass density: 862.23 ± 1 kg/m3

## Cc1ccccc1 [toluene] + CCCO
[2]; x1 = 0.0724
  speed of sound: 1193 ± 6 m/s
[2]; x1 = 0.1494
  speed of sound: 1199 ± 6 m/s
[2]; x1 = 0.2314
  speed of sound: 1204 ± 6 m/s
[2]; x1 = 0.319
  speed of sound: 1209 ± 6 m/s
[2]; x1 = 0.3586
  speed of sound: 1211 ± 6 m/s
[2]; x1 = 0.4352
  speed of sound: 1216 ± 6 m/s
[2]; x1 = 0.5131
  speed of sound: 1220 ± 6 m/s
[2]; x1 = 0.5724
  speed of sound: 1224 ± 6 m/s
[2]; x1 = 0.6211
  speed of sound: 1227 ± 6 m/s
[2]; x1 = 0.6846
  speed of sound: 1231 ± 6 m/s
[2]; x1 = 0.7376
  speed of sound: 1235 ± 6 m/s
[2]; x1 = 0.7829
  speed of sound: 1239 ± 6 m/s
[2]; x1 = 0.8635
  speed of sound: 1247 ± 6 m/s
[2]; x1 = 0.9243
  speed of sound: 1253 ± 6 m/s

— the NIST ThermoML archive (doi:10.1007/s10765-010-0861-2)
